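Five concentrations, 48 hours, 96-well plates. The concentration for 50% growth inhibition is given as GI50.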 Active and inactive are the calls of the source. Cut-off read from the data, not from the text of the source: active = GI50 up to about 1.1 µM and inactive = higher.
Tests used:
Test in all cases: inhibition of tumour cell growth, NCI panel, 48 h
SK-MEL-5 = test system: SK-MEL-5
SN12C = test system: SN12C
A498 = test system: A498
OVCAR-4 = test system: OVCAR-4
NCI-H460 = test system: NCI-H460
HOP-62 = test system: HOP-62
HL-60 = test system: HL-60
SK-OV-3 = test system: SK-OV-3
HT-29 = test system: HT-29
SNB-75 = test system: SNB-75
EKVX = test system: EKVX
Malme-3M = test system: Malme-3M
SF-268 = test system: SF-268
MOLT-4 = test system: MOLT-4
SNB-19 = test system: SNB-19
A549 = test system: A549
U-251 = test system: U-251
HOP-92 = test system: HOP-92
CCRF-CEM = test system: CCRF-CEM
SR = test system: SR

| SMILES | GI50 (SK-MEL-5) | GI50 (SN12C) | GI50 (A498) | GI50 (OVCAR-4) | GI50 (NCI-H460) | GI50 (HOP-62) | GI50 (HL-60) | GI50 (SK-OV-3) | GI50 (HT-29) | GI50 (SNB-75) | GI50 (EKVX) | GI50 (Malme-3M) | GI50 (SF-268) | GI50 (MOLT-4) | GI50 (SNB-19) | GI50 (A549) | GI50 (U-251) | GI50 (HOP-92) | GI50 (CCRF-CEM) | GI50 (SR) |
| --- | --- | --- | --- | --- | --- | --- | --- | --- | --- | --- | --- | --- | --- | --- | --- | --- | --- | --- | --- | --- |
| Nc1ccccc1SCc1csc(-c2ccc(Cl)cc2)n1 | 14.8 µM (inactive) | 16.6 µM (inactive) | 23.3 µM (inactive) | 21.8 µM (inactive) | 26.2 µM (inactive) | 30.3 µM (inactive) | 3.52 µM (inactive) | 31.7 µM (inactive) | 23.6 µM (inactive) | 46.7 µM (inactive) | 25.9 µM (inactive) | 20.3 µM (inactive) | 22.8 µM (inactive) | 4.39 µM (inactive) | 32.3 µM (inactive) | 24.5 µM (inactive) | 20.3 µM (inactive) | 21.9 µM (inactive) | 5.37 µM (inactive) | 6.61 µM (inactive) |
| O=C1c2ccccc2C(=O)c2oc(Br)cc21 | 0.144 µM (active) | 0.953 µM (active) | 1.94 µM (inactive) | 1.87 µM (inactive) | 0.845 µM (active) | 1.69 µM (inactive) | 0.378 µM (active) | 2.14 µM (inactive) | 1.6 µM (inactive) | 0.256 µM (active) | 1.94 µM (inactive) | 0.127 µM (active) | 1.87 µM (inactive) | 1.8 µM (inactive) | 1.5 µM (inactive) | 0.344 µM (active) | 1.26 µM (inactive) | 2.02 µM (inactive) | 1.95 µM (inactive) | 1.09 µM (active) |
| C=C1C(=O)C2=CC1CCC(=O)C1(C)CCC(OC(C)=O)C(C)(C)C1CC2O (stereo not given) | 1.82 µM (inactive) | 2.53 µM (inactive) | 3.18 µM (inactive) | 2.17 µM (inactive) | 1.63 µM (inactive) | 8.45 µM (inactive) | 0.288 µM (active) | 8.95 µM (inactive) | 1.35 µM (inactive) | 8.32 µM (inactive) | 3.91 µM (inactive) | 2.37 µM (inactive) | 3.4 µM (inactive) | 0.661 µM (active) | 3.58 µM (inactive) | 4.38 µM (inactive) | 2.93 µM (inactive) | 4.22 µM (inactive) | 0.392 µM (active) | 0.347 µM (active) |
| O=C(CCN1CCCCC1)C(=Cc1ccccc1)C(=O)CCN1CCCCC1 | > 100 µM (inactive) | > 74.8 µM (inactive) | > 100 µM (inactive) | > 100 µM (inactive) | > 100 µM (inactive) | > 100 µM (inactive) | 21.7 µM (inactive) | > 100 µM (inactive) | 6.68 µM (inactive) | > 100 µM (inactive) | > 100 µM (inactive) | > 10 µM (inactive) | > 78.9 µM (inactive) | 18.6 µM (inactive) | > 100 µM (inactive) | > 100 µM (inactive) | > 100 µM (inactive) | 42.8 µM (inactive) | 17.2 µM (inactive) | 4.36 µM (inactive) |
| Cn1ncc2c(Nc3ccc(Cl)cc3)c3ccccc3nc21 | 13.6 µM (inactive) | 16 µM (inactive) | 14.8 µM (inactive) | 12.4 µM (inactive) | 18.7 µM (inactive) | 16.4 µM (inactive) | 23.4 µM (inactive) | 20.5 µM (inactive) | 13.5 µM (inactive) | 10.8 µM (inactive) | > 10 µM (inactive) | 20.2 µM (inactive) | 20.3 µM (inactive) | 11.4 µM (inactive) | 18 µM (inactive) | 15.3 µM (inactive) | 15.6 µM (inactive) | 17.6 µM (inactive) | 17.9 µM (inactive) | 14.9 µM (inactive) |
| Cc1ccc(OCC2=NN3C(=O)/C(=C\c4ccc([N+](=O)[O-])o4)SC3N2)cc1 (stereo not given) | 8.99 µM (inactive) | 16.9 µM (inactive) | 17.4 µM (inactive) | 2.99 µM (inactive) | 18.7 µM (inactive) | 16.6 µM (inactive) | 1.59 µM (inactive) | 16.3 µM (inactive) | 6.7 µM (inactive) | 15.9 µM (inactive) | 12.1 µM (inactive) | 2.66 µM (inactive) | 4.07 µM (inactive) | 2.33 µM (inactive) | 17.8 µM (inactive) | 19 µM (inactive) | 15.8 µM (inactive) | 2.8 µM (inactive) | 2.99 µM (inactive) | 2.94 µM (inactive) |
| Cn1cnc([N+](=O)[O-])c1Sc1nc2ccccc2[nH]1 | 13.1 µM (inactive) | 14.7 µM (inactive) | 21.2 µM (inactive) | 33 µM (inactive) | 22.4 µM (inactive) | > 100 µM (inactive) | 9.29 µM (inactive) | 21.7 µM (inactive) | 27.7 µM (inactive) | 18.4 µM (inactive) | 14.1 µM (inactive) | 16.3 µM (inactive) | 14.3 µM (inactive) | 6.87 µM (inactive) | > 10 µM (inactive) | 19.4 µM (inactive) | 20 µM (inactive) | 18.5 µM (inactive) | 17.9 µM (inactive) | 10 µM (inactive) |
| Cn1c(=O)c2nc(NCCO)cnc2n(C)c1=O | > 100 µM (inactive) | > 100 µM (inactive) | > 100 µM (inactive) | 62.7 µM (inactive) | 59.7 µM (inactive) | 71.1 µM (inactive) | 27.2 µM (inactive) | > 100 µM (inactive) | > 100 µM (inactive) | 8.73 µM (inactive) | > 100 µM (inactive) | 44.7 µM (inactive) | > 100 µM (inactive) | > 100 µM (inactive) | > 100 µM (inactive) | > 100 µM (inactive) | 32.9 µM (inactive) | > 100 µM (inactive) | > 100 µM (inactive) | 42.8 µM (inactive) |
| N#CC1(Nc2ccc(-c3ccc(NC4(C#N)CCCC4)cc3)cc2)CCCC1 | 59 µM (inactive) | > 100 µM (inactive) | > 100 µM (inactive) | > 100 µM (inactive) | > 100 µM (inactive) | > 100 µM (inactive) | > 100 µM (inactive) | > 100 µM (inactive) | 77.4 µM (inactive) | > 100 µM (inactive) | > 100 µM (inactive) | > 100 µM (inactive) | > 100 µM (inactive) | 86.1 µM (inactive) | > 100 µM (inactive) | > 100 µM (inactive) | > 100 µM (inactive) | 39.3 µM (inactive) | 0.0104 µM (active) | > 100 µM (inactive) |

From ChEMBL document CHEMBL1201862, “PubChem BioAssay data set” (2004)
